Measured values as given in US20210330756A1, “Acetylation of Miro1” (University of South Carolina, priority 2020, published 2021).

How the values were obtained:
Type in all cases: cell-based, rat
adult DRG neurons = experiment: Axon growth of DRG neurons on laminin or substrate-bound aggrecan (CSPG); settings: 10 μM TubA, 24 h
Description: (§1) MAG and CSPGs are more often tested as surface-bound substrates than with the bath applications used here. Thus, we tested whether bath application of growth inhibitors would cause growth cone retraction in a manner similar to surface-bound inhibitors. […] RhoA activation is a well-known downstream mediator for the growth-inhibitory effects of both MAG and CSPGs (Fujita and Yamashita, 2014), so we tested whether the RhoA/ROCK pathway contributes to the impact of aggregan on mitochondria distribution in growth cones.
MAG or Aggrecan exposures were performed as bath application or on coated substrates. For bath application, dissociated DRGs were cultured for 48 h and treated with 25 μg/ml of MAG-Fc (R&D Systems; 538-MG), 25 μg/ml Fc control (R&D Systems; 110-HG), or 10 μg/ml of Aggrecan (Sigma-Aldrich; A1960) for 4 h. Cultures were pretreated with either Ca^2+ chelator BAPTA-AM (3 μM; Sigma-Aldrich; A1076), ROCK inhibitor Y27632 (10 μM; Sigma-Aldrich; SCM075), HDAC6 inhibitor TubA (10 μM; R&D Systems; 6270), Thapsigargin (1 μM; Sigma-Aldrich; T9033), Rho Activator II (1 μg/ml; Cytoskeleton; CNO3), or equivalent volume DMSO 30 min before MAG-Fc, Aggrecan, or controls. […]
NF-stained cultures were used for neurite growth analyses. […] The growth cone area was measured using ImageJ software from these annotated DIC images. […]

[1] = tested on: axonal mitochondria of DRG neurons; experiment: Live cell imaging of axonal mitochondrial movement in cultured DRG neurons
Description: HDAC6 inhibition was previously shown to increase transport of mitochondria in axons of embryonic rodent hippocampal and chick sensory neurons (Chen et al., 2010; Kim et al., 2012; Rui and Zheng, 2016; Sainath et al., 2017), and axonal mitochondrial transport has been linked to axon growth (Steketee et al., 2012; Cartoni et al., 2016; Lewis et al., 2016; Zhou et al., 2016). By live cell imaging with MitoTracker to visualize mitochondria, DRG neurons appeared to show increased anterograde versus retrograde mitochondrial movement along axons (FIG. 3 at A and B). […] (A and B) Representative images from CALI time lapse sequence are shown for DRGs cultured on laminin and treated with vehicle control (DMSO) versus 10 μM TubA for 1 h (A). BFP is shown in blue as an axonal marker and Mito-KR signal is shown in red. Boxed regions represent ROI for distal axon and growth cone that was subjected to photoactivation of Mito-KR to ablate mitochondria. […] (C and D) Quantifications of percentage of axons retracting (C) and retraction distance (D) from image sequences as in A are shown as average±SEM (n≥13 across three culture preparations; ***, P≤0.005 by one-way ANOVA with Bonferroni post hoc analysis). (E) Recovery of Mito-KR red fluorescence in photoactivated ROI from image sequences as in A is shown as average of normalized percentage recovery±SEM (n≥13 axons from three independent experiments; *, P≤0.05; **, P≤0.01; ***, P≤0.005 vs. t=0; ###, P≤0.005; ####, P≤0.001, #####, P≤0.0005 for TubA vs. control; and NS vs. t=0 s by one-way ANOVA with Bonferroni post hoc analysis). […]
Quantification of growth cone mitochondria was performed using high-magnification images from living neurons transfected with either Mito-KR or incubated with MitoTracker. […] Only mitochondria that could be distinguished as a single mitochondrion were counted; if this was not possible, that growth cone was not included in the analysis. […]
Vesicle trafficking was quantified using differential ImageJ Difference Tracker Plug-in (Andrews et al., 2010). […] Movement of ≥0.5 μm toward the axon shaft was counted as retracted. […]

[2] = tested on: growth cones of DRG neurons; experiment: Growth cone retraction after bath-applied growth inhibitors; settings: 10 μM TubA
Description: as §1
MAG or Aggrecan exposures were performed as bath application or on coated substrates. For bath application, dissociated DRGs were cultured for 48 h and treated with 25 μg/ml of MAG-Fc (R&D Systems; 538-MG), 25 μg/ml Fc control (R&D Systems; 110-HG), or 10 μg/ml of Aggrecan (Sigma-Aldrich; A1960) for 4 h. Cultures were pretreated with either Ca^2+ chelator BAPTA-AM (3 μM; Sigma-Aldrich; A1076), ROCK inhibitor Y27632 (10 μM; Sigma-Aldrich; SCM075), HDAC6 inhibitor TubA (10 μM; R&D Systems; 6270), Thapsigargin (1 μM; Sigma-Aldrich; T9033), Rho Activator II (1 μg/ml; Cytoskeleton; CNO3), or equivalent volume DMSO 30 min before MAG-Fc, Aggrecan, or controls. For substrate-bound experiments, adult DRGs were cultured on glass bottom dishes (Greiner) that were coated with 25 μg/ml Aggrecan in addition to the laminin/poly-D-lysine substrate.

CN1CCc2c(c3ccccc3n2Cc2ccc(C(=O)NO)cc2)C1 [TubA, tubastatin]
effect on attenuation of axon growth by substrate-bound aggrecan (adult DRG neurons): prevented by TubA exposure
mitochondrial profiles in growth cones ([1]; 10 μM TubA, 1 h vs vehicle): significant increase in mitochondrial profiles in the growth cones
speed, track durations, directionality of axonal mitochondrial movements ([1]; HDAC6-inhibited (10 μM TubA) vs control, laminin): no significant differences
anterogradely vs retrogradely moving mitochondria in axons ([1]; HDAC6-inhibited cultures): more anterogradely than retrogradely moving mitochondria
effect on aggrecan-induced growth cone retraction [2]: prevented by application of TubA
